Legend:
PKR(R510Q) = PKR(R510Q) (Homo sapiens, UniProt P30613, R510Q); assay: Luminescence Biochemical Assay (Kinase Glo Plus), PKR R510Q; conditions: without FBP; for AC50: read-out: D—AC50 LUM KGP woFBP AC50 μM gmean
Method: (§1) In some embodiments, a PKR Activating Compound refers to a compound having one or more characteristics when tested according to the following Luminescence Assay Protocol of Example 3 performed with wild type (wt) PKR and/or any one or more of G332S mutant form of PKR or R510Q mutant form of PKR: (1) an AC50 value of less than 40 μM (e.g., compounds with AC50 values of “+”, “++”, or “+++” in Table 2); (2) a maximum % Fold (MAX % Fold) value of greater than 75%; and/or (3) a % Fold value at 1.54 μM compound concentration (% Fold@1.54 μM) of at least 75%. In some embodiments, a PKR Activating Compound can have: (1) an AC50 value of less than 0.1 μM (e.g., compounds with AC50 values of “+++” in Table 2), 0.1-1.0 μM (e.g., compounds with AC50 values of “++” in Table 2), or 1.01-40 μM (e.g., compounds with AC50 values of “+” in Table 2); (2) a MAX % Fold of 75%-250%, 250-500%, or 75%-500%; and/or (3) a % Fold@1.54 μM of 75%-250%, 250-500%, or 75%-500%. In some embodiments, a PKR Activating Compound has (1) an AC50 value of less than 1.0 μM; (2) a MAX % Fold of 75%-500%; and/or (3) a % Fold@1.54 μM of 75%-500%.
(§2) The phosphorylation of Adenosine-5′-diphosphate (ADP) by various mutants of PKR was determined by the Kinase Glo Plus Assay (Promega) in the presence or absence of FBP [D-Fructose-1,6-diphosphate; BOC Sciences, CAS: 81028-91-3] as follows. Unless otherwise indicated, all reagents were purchased from Sigma-Aldrich. All reagents were prepared in buffer containing 50 mM Tris-HCl, 100 mM KCl, 5 mM MgCl2, and 0.01% Triton X100, 0.03% BSA, and 1 mM DTT. Enzyme and PEP [Phospho(enol) pyruvic acid] were added at 2× to all wells of an assay-ready plate containing serial dilutions of test compounds or DMSO vehicle. Final enzyme concentrations for PKR(wt), PKR(R510Q), and PKR(G332S) were 0.8 nM, 0.8 nM, and 10 nM respectively. Final PEP concentration was 100 μM. The Enzyme/PEP mixture was incubated with compounds for 30 minutes at RT before the assay was initiated with the addition of 2×ADP [Adenosine-5′-diphosphate] and KinaseGloPlus. Final concentration of ADP was 100 μM. […] For assays containing FBP, that reagent is added at 30 μM upon reaction initiation. Reactions were allowed to progress for 45 minutes at RT until luminescence was recorded by the BMG PHERAstar FS Multilabel Reader. All compounds were tested in triplicate at concentrations ranging from 42.5 μM to 2.2 nM in 0.83% DMSO.
Luminescence values were converted to % Fold increase by normalizing to the average of the DMSO control and multiplying by 100. Max, min, slope and AC50 were determined by the standard four parameter fit algorithm of ActivityBase XE Runner. Compounds were evaluated with three parameters—AC50, MAX % Fold, and % Fold@1.54 μM (FIG. 1). The AC50 value for a compound is the concentration (μM) corresponding to the midway between the maximum and minimum values of the four parameter logistic curve fit (i.e., at which the % fold increase along the four parameter logistic curve fit is halfway between MAX % Fold and MIN % Fold (% Fold Midpoint)), MAX % Fold is the highest fold increase observed at any concentration of compound, and % Fold@1.54 μM is the fold increase at a compound concentration of 1.54 μM. The parameter % Fold@1.54 μM was selected to capture elements of both the AC50 and MAX % Fold and to provide a ranking based on both potency and effect. […]

PKR(wt) = PKR(wt) (Homo sapiens, UniProt P30613); assay: Luminescence Biochemical Assay (Kinase Glo Plus), wild type PKR; conditions: without FBP; for AC50: read-out: G—AC50 LUM KGP woFBP AC50 μM gmean
Method: as §1, §2
Luminescence values were converted to % Fold increase by normalizing to the average of the DMSO control and multiplying by 100. Max, min, slope and AC50 were determined by the standard four parameter fit algorithm of ActivityBase XE Runner. Compounds were evaluated with three parameters—AC50, MAX % Fold, and % Fold@1.54 μM (FIG. 1). The AC50 value for a compound is the concentration (μM) corresponding to the midway between the maximum and minimum values of the four parameter logistic curve fit (i.e., at which the % fold increase along the four parameter logistic curve fit is halfway between MAX % Fold and MIN % Fold (% Fold Midpoint)), MAX % Fold is the highest fold increase observed at any concentration of compound, and % Fold@1.54 μM is the fold increase at a compound concentration of 1.54 μM. The parameter % Fold@1.54 μM was selected to capture elements of both the AC50 and MAX % Fold and to provide a ranking based on both potency and effect. The compound concentration of 1.54 μM was chosen as one that can optimally differentiate the set of compounds based on the range of activities observed.
As set forth in Table 2 below, AC50 values (columns A, D, G) are defined as follows: ≤0.1 μM (+++); >0.1 μM and ≤1.0 μM (++); >1.0 μM and ≤40 μM (+); >40 μM (0). Max % FOLD values (columns B, E, H) are defined as follows: ≤75% (+); >75% and ≤250% (++); >250% and ≤500% (+++). % Fold@1.54 μM values (columns C, F, J) are defined as follows: ≤75% (+); >75% and ≤250% (++); >250% and ≤500% (+++).

PKR(G332S) = PKR(G332S) (Homo sapiens, UniProt P30613, G332S); assay: Luminescence Biochemical Assay (Kinase Glo Plus), PKR G332S; conditions: with FBP (30 μM); for AC50: read-out: A—AC50 LUM KGP FBP AC50 μM gmean
Method: as §1, §2
Luminescence values were converted to % Fold increase by normalizing to the average of the DMSO control and multiplying by 100. Max, min, slope and AC50 were determined by the standard four parameter fit algorithm of ActivityBase XE Runner. Compounds were evaluated with three parameters—AC50, MAX % Fold, and % Fold@1.54 μM (FIG. 1). […]

Sequence of PKR(R510Q) (P30613 whole entry R510Q): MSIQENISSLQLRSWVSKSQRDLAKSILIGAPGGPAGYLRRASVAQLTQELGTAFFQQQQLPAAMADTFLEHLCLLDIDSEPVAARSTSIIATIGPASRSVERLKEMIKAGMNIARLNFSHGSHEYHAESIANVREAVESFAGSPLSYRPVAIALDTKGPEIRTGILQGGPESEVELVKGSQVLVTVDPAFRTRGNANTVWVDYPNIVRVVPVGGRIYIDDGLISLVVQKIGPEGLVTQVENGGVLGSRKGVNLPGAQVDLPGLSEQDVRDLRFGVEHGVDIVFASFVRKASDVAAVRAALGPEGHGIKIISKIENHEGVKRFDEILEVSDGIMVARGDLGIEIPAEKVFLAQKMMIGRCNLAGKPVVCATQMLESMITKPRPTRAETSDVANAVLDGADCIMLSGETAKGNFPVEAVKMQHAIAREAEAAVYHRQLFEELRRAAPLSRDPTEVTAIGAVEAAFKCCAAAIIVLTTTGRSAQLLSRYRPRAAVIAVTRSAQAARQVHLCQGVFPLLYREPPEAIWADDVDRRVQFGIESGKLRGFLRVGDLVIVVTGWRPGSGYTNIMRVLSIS
Sequence of PKR(G332S) (P30613 whole entry G332S): as the sequence (P30613 whole entry R510Q) above, with G332S, Q510R counted along it
Sequence of PKR(wt) (P30613 whole entry): as the sequence (P30613 whole entry R510Q) above, with Q510R counted along it

SMILES	AC50 (PKR(wt))	AC50 (PKR(R510Q))	further results
O=C([C@H](O)c1ccccc1)N1CC2=C(C1)CN(S(=O)(=O)c1ccccn1)C2 [Compound 1, (2R)-2-hydroxy-2-phenyl-1-[5-(pyridine-2-sulfonyl)-1H,2H,3H,4H, 5H,6H-pyrrolo[3,4-c]pyrrol-2-yl]ethan-1-one]	≤ 0.1 µM		E—AC50 LUM KGP woFBP MAX % FOLD mean (PKR(R510Q)): +++ (>250% and ≤500% (+++)); F—AC50 LUM KGP woFBP % Fold@1.54 μM mean (PKR(R510Q); 1.54 μM compound): ++ (>75% and ≤250% (++)); H—AC50 LUM KGP woFBP MAX % FOLD mean (PKR(wt)): ++ (>75% and ≤250% (++)); J—AC50 LUM KGP woFBP % Fold@1.54 μM mean (PKR(wt); 1.54 μM compound): ++ (>75% and ≤250% (++)); B—AC50 LUM KGP FBP MAX % FOLD mean (PKR(G332S)): ++ (>75% and ≤250% (++)); C—AC50 LUM KGP FBP % Fold@1.54 μM mean (PKR(G332S); 1.54 μM compound): ++ (>75% and ≤250% (++))
C[C@@H](C(=O)N1CC2=C(C1)CN(S(=O)(=O)c1c[nH]c3c(Cl)nccc13)C2)c1ccccc1 [Compound 25]		1 to 40 µM	AC50 (PKR(G332S)): 1 to 40 µM
CN1CCOc2ccc(S(=O)(=O)N3CC4=C(CN(C(=O)CC5CCOCC5)C4)C3)cc21 [Compound 26]	1 to 40 µM		
CC(=O)N1CCOc2ccc(S(=O)(=O)N3CC4=C(CN(C(=O)C(C)c5ccc(F)cc5)C4)C3)cc21 (centres unmarked) [Compound 29]	1 to 40 µM		
CN1CCOc2ccc(S(=O)(=O)N3CC4=C(CN(C(=O)C5(c6cccc(F)c6)CC5)C4)C3)cc21 [Compound 30]	1 to 40 µM	1 to 40 µM	AC50 (PKR(G332S)): 1 to 40 µM

More lines, main results first:

AC50 (PKR(wt))	AC50 (PKR(R510Q))	SMILES	further results
	1 to 40 µM	Cc1nc2ccc(S(=O)(=O)N3CC4=C(CN(C(=O)Cc5ccc(Cl)cc5)C4)C3)cc2s1 [Compound 24]	
1 to 40 µM		Cc1nn(C(C)C(=O)N2CC3=C(C2)CN(S(=O)(=O)c2ccc4occc4c2)C3)cc1Cl (centres unmarked) [Compound 27]	
1 to 40 µM		O=C(CC1CCS(=O)(=O)CC1)N1CC2=C(C1)CN(S(=O)(=O)c1ccc3occc3c1)C2 [Compound 28]	

From US11001588B2, “Activating pyruvate kinase R and mutants thereof” (FORMA Therapeutics, Inc., priority 2018, dated 2021)
